# Test results from patent US9532970B2, “Compositions for anti-inflammatory, antioxidant effects and improved respiratory function by specific histone deacetylase inhibition” (priority 2014, dated 2017).
# Legend:
# [1] = biological target: T1, HDAC8 (Homo sapiens, UniProt Q9BY41)
# [2] = system: peripheral blood mononuclear cells (PBMC)
# [3] = system: naphthalene-induced airway epithelial damage; conditions: 5 mg/kg ip
# [4] = system: H9c2 cells; conditions: pre-treated with 10, 15 and 30 μM for 24 hours prior to 1 μM doxorubicin
# [5] = biological target: HDAC-3 (Homo sapiens, UniProt O15379); test: biochemical
# Sequence of HDAC-3 (O15379 whole entry, species assumed): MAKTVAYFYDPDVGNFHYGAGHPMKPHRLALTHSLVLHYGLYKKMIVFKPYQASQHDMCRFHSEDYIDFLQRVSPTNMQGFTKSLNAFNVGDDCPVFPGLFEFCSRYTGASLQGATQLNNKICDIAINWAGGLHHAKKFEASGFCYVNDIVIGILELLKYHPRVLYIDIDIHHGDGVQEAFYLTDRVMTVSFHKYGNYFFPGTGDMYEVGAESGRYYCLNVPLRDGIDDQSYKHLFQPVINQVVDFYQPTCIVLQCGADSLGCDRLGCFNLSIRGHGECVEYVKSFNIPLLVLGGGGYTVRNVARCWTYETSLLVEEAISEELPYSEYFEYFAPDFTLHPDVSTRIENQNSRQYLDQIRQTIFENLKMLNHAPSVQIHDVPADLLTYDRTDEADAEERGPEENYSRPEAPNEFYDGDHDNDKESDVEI
# Sequence of HDAC-3 (Q9Y618 395-489 partner limits assumed, species assumed): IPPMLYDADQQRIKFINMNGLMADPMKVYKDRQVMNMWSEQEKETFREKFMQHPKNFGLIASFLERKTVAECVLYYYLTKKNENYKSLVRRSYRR
# [6] = biological target: T2, HDAC-6 (Homo sapiens, UniProt Q9UBN7); test: biochemical
# T2 sequence (Q9UBN7 1-1215): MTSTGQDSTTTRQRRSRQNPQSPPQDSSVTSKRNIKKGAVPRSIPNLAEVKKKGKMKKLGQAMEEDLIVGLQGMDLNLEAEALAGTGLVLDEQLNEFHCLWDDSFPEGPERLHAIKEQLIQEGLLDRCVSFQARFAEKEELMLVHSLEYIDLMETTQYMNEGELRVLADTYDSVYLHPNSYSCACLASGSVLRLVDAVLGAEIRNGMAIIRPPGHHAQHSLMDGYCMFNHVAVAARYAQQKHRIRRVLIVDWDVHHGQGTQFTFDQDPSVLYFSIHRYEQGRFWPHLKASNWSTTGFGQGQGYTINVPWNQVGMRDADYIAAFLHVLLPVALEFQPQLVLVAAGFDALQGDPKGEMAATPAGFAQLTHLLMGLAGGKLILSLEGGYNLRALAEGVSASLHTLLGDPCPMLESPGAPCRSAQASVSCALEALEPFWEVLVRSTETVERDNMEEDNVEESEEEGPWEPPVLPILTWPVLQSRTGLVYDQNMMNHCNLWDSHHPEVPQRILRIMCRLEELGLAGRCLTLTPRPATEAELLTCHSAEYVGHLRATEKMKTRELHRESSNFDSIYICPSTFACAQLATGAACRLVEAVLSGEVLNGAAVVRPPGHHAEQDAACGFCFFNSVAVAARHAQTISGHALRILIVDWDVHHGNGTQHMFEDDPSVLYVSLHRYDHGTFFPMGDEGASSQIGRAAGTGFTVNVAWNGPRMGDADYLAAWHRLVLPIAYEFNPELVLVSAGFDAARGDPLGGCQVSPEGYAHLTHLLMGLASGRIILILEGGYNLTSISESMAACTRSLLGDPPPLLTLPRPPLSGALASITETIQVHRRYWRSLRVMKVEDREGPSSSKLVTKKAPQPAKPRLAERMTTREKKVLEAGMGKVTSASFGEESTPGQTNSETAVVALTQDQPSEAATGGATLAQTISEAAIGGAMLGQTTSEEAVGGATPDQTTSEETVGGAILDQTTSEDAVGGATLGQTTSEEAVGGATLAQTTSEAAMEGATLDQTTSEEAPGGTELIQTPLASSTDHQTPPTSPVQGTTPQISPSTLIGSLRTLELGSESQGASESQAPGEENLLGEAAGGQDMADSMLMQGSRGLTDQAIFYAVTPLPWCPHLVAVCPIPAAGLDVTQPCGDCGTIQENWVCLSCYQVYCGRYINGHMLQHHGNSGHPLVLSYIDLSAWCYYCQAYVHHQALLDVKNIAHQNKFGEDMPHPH
# [7] = biological target: T1, HDAC8; test: biochemical
# T1 sequence (Q9BY41 whole entry, species assumed): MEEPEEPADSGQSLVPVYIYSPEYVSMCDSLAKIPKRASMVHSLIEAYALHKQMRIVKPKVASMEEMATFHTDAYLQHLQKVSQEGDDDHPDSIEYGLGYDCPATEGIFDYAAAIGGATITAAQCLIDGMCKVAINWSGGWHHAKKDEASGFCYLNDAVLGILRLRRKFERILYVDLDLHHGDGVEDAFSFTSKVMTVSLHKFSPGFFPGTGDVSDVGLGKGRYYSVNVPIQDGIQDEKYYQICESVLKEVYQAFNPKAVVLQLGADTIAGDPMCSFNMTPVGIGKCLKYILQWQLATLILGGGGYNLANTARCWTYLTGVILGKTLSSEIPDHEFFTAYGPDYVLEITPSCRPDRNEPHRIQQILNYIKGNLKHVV
smiles,measurement,setting,value
"C[S@@+]([O-])CCCCN=C=S [LSF, (R)-1-Isothiocyanato-4-(methylsulfinyl)butane]",binding to HDAC8 relative to the other HDACs,[1]; FIG. 1,most pronounced
same,HILLSLOPE,[1]; HDAC-8,−0.88
same,binding to HDAC 8 (in words),[1]; more subtle than Trichostatin A,specific binding
same,"reduction in chemokines and cytokines relative to Trichostatin A (TSA), SAHA and sodium butyrate (NaB)","[2]; 1 μM TSA, 10 μM SAHA, 10 mM NaB, 15 or 30 μM LSF",more pronounced effects
same,"levels of TNF-α, IL-1β, IL-6, IL-8, MIP-1β and IP-10 in supernatants","[2]; 15 μM LSF or 30 μM LSF, FIG. 3",reduction
same,epithelial denudation,"[3]; 24 hours post-naphthalene, level analogous to dexamethasone 1 mg/kg",reduces
same,lamina reticularis thickness,"[3]; 72 hours post-naphthalene, efficacy similar to dexamethasone",reduces
same,doxorubicin-induced accumulation of γH2AX foci,[4],attenuates
same,IC50,[5],20500 µM
same,IC50,[6],1020 µM
same,IC50,[7],82.7 µM
